Measured values taken from PubChem BioAssay (NCI).
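These data come from cells grown in 96-well plates and exposed to compound for 48 hours at five concentrations. Abbreviation: GI50, concentration required for 50% inhibition of growth. TGI: total growth inhibition.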

Legend:
Test in all cases: DTP human tumour cell line panel, 48 h
TK-10 renal = system: TK-10 renal
NCI/ADR-RES ovarian = system: NCI/ADR-RES ovarian
MOLT-4 leukemia = system: MOLT-4 leukemia
T-47D breast = system: T-47D breast
SNB-75 CNS = system: SNB-75 CNS
A549 NSCLC = system: A549 NSCLC
MCF7 breast = system: MCF7 breast
UACC-257 melanoma = system: UACC-257 melanoma
HOP-92 NSCLC = system: HOP-92 NSCLC
SF-295 CNS = system: SF-295 CNS
U251 CNS = system: U251 CNS
NCI-H522 lung = system: NCI-H522 lung
OVCAR-3 ovarian = system: OVCAR-3 ovarian
MDA-MB-435 = system: MDA-MB-435
A498 renal = system: A498 renal
SK-MEL-5 melanoma = system: SK-MEL-5 melanoma
SF-539 CNS = system: SF-539 CNS
UO-31 renal = system: UO-31 renal
EKVX NSCLC = system: EKVX NSCLC
CAKI-1 renal = system: CAKI-1 renal
IGROV1 ovarian = system: IGROV1 ovarian
HOP-62 NSCLC = system: HOP-62 NSCLC
NCI-H226 lung = system: NCI-H226 lung
SR leukemia = system: SR leukemia
HS 578T breast = system: HS 578T breast
M14 melanoma = system: M14 melanoma
RXF 393 renal = system: RXF 393 renal
SK-OV-3 ovarian = system: SK-OV-3 ovarian
OVCAR-8 ovarian = system: OVCAR-8 ovarian
LOX IMVI melanoma = system: LOX IMVI melanoma
CCRF-CEM leukemia = system: CCRF-CEM leukemia
SK-MEL-2 melanoma = system: SK-MEL-2 melanoma
SK-MEL-28 melanoma = system: SK-MEL-28 melanoma
HT29 colon = system: HT29 colon
SF-268 CNS = system: SF-268 CNS
SNB-19 CNS = system: SNB-19 CNS
OVCAR-5 ovarian = system: OVCAR-5 ovarian
NCI-H460 lung = system: NCI-H460 lung
HCC-2998 colon = system: HCC-2998 colon
SW-620 colon = system: SW-620 colon
DU-145 prostate = system: DU-145 prostate
BT-549 breast = system: BT-549 breast
KM12 colon = system: KM12 colon
K-562 leukemia = system: K-562 leukemia
HCT-15 colon = system: HCT-15 colon
MDA-MB-231 breast = system: MDA-MB-231 breast
SN12C renal = system: SN12C renal
UACC-62 melanoma = system: UACC-62 melanoma
ACHN renal = system: ACHN renal
COLO 205 colon = system: COLO 205 colon
NCI-H23 lung = system: NCI-H23 lung
MALME-3M melanoma = system: MALME-3M melanoma
RPMI-8226 leukemia = system: RPMI-8226 leukemia
PC-3 prostate = system: PC-3 prostate
HL-60(TB) leukemia = system: HL-60(TB) leukemia
786-0 renal = system: 786-0 renal
OVCAR-4 ovarian = system: OVCAR-4 ovarian
HCT-116 colon = system: HCT-116 colon

## O=[N+]([O-])c1ccc(C2=NCCO2)cc1
TK-10 renal
  GI50: > 100 µM
  TGI: > 100 µM
NCI/ADR-RES ovarian
  GI50: > 100 µM
  TGI: > 100 µM
MOLT-4 leukemia
  GI50: > 100 µM
  TGI: > 100 µM
T-47D breast
  GI50: > 100 µM
  TGI: > 100 µM
SNB-75 CNS
  GI50: > 100 µM
  TGI: > 100 µM
A549 NSCLC
  GI50: > 100 µM
  TGI: > 100 µM
MCF7 breast
  GI50: > 100 µM
  TGI: > 100 µM
UACC-257 melanoma
  GI50: > 100 µM
  TGI: > 100 µM
HOP-92 NSCLC
  GI50: > 100 µM
  TGI: > 100 µM
SF-295 CNS
  GI50: > 100 µM
  TGI: > 100 µM
U251 CNS
  GI50: > 100 µM
  TGI: > 100 µM
NCI-H522 lung
  GI50: > 100 µM
  TGI: > 100 µM
OVCAR-3 ovarian
  GI50: > 100 µM
  TGI: > 100 µM
MDA-MB-435
  GI50: > 100 µM
  TGI: > 100 µM
A498 renal
  GI50: > 100 µM
  TGI: > 100 µM
SK-MEL-5 melanoma
  GI50: > 100 µM
  TGI: > 100 µM
SF-539 CNS
  GI50: > 100 µM
  TGI: > 100 µM
UO-31 renal
  GI50: > 100 µM
  TGI: > 100 µM
EKVX NSCLC
  GI50: > 100 µM
  TGI: > 100 µM
CAKI-1 renal
  GI50: > 100 µM
  TGI: > 100 µM
IGROV1 ovarian
  GI50: > 100 µM
  TGI: > 100 µM
HOP-62 NSCLC
  GI50: > 100 µM
  TGI: > 100 µM
NCI-H226 lung
  GI50: > 100 µM
  TGI: > 100 µM
SR leukemia
  GI50: > 100 µM
  TGI: > 100 µM
HS 578T breast
  GI50: > 100 µM
  TGI: > 100 µM
M14 melanoma
  GI50: > 100 µM
  TGI: > 100 µM
RXF 393 renal
  GI50: > 100 µM
  TGI: > 100 µM
SK-OV-3 ovarian
  GI50: > 100 µM
  TGI: > 100 µM
OVCAR-8 ovarian
  GI50: > 100 µM
  TGI: > 100 µM
LOX IMVI melanoma
  GI50: > 100 µM
  TGI: > 100 µM
CCRF-CEM leukemia
  GI50: 3.15 µM
  TGI: > 100 µM
SK-MEL-2 melanoma
  GI50: > 100 µM
  TGI: > 100 µM
SK-MEL-28 melanoma
  GI50: > 100 µM
  TGI: > 100 µM
HT29 colon
  GI50: > 100 µM
  TGI: > 100 µM
SF-268 CNS
  GI50: > 100 µM
  TGI: > 100 µM
SNB-19 CNS
  GI50: > 100 µM
  TGI: > 100 µM
OVCAR-5 ovarian
  GI50: > 100 µM
  TGI: > 100 µM
NCI-H460 lung
  GI50: > 100 µM
  TGI: > 100 µM
HCC-2998 colon
  GI50: > 100 µM
  TGI: > 100 µM
SW-620 colon
  GI50: > 100 µM
  TGI: > 100 µM
DU-145 prostate
  GI50: > 100 µM
  TGI: > 100 µM
BT-549 breast
  GI50: > 100 µM
  TGI: > 100 µM
KM12 colon
  GI50: > 100 µM
  TGI: > 100 µM
K-562 leukemia
  GI50: > 100 µM
  TGI: > 100 µM
HCT-15 colon
  GI50: > 100 µM
  TGI: > 100 µM
MDA-MB-231 breast
  GI50: > 100 µM
  TGI: > 100 µM
SN12C renal
  GI50: > 100 µM
  TGI: > 100 µM
UACC-62 melanoma
  GI50: > 100 µM
  TGI: > 100 µM
ACHN renal
  GI50: > 100 µM
  TGI: > 100 µM
COLO 205 colon
  GI50: > 100 µM
  TGI: > 100 µM
NCI-H23 lung
  GI50: > 100 µM
  TGI: > 100 µM
MALME-3M melanoma
  GI50: > 100 µM
  TGI: > 100 µM
RPMI-8226 leukemia
  GI50: > 100 µM
  TGI: > 100 µM
PC-3 prostate
  GI50: > 100 µM
  TGI: > 100 µM
HL-60(TB) leukemia
  GI50: > 100 µM
  TGI: > 100 µM
786-0 renal
  GI50: > 100 µM
  TGI: > 100 µM
OVCAR-4 ovarian
  GI50: > 100 µM
  TGI: > 100 µM
HCT-116 colon
  GI50: > 100 µM
  TGI: > 100 µM
